We go through 14 compounds from PubChem BioAssay AID2253 (Southern Research Specialized Biocontainment Screening …, 2010).

One may read the EC50 as the concentration at which the effect is half-maximal.

This assay concerns THP-1 viability, CellTiter-Glo luminescence, 72 h. The experiment in a line: human monocytic cell viability reduction – S. typhimurium screen hits, cytotoxicity control for Salmonella PhoP regulon inhibitors, dose response (AID 2253).
`Cc1nn(-c2ccccc2)c(C)c1/C=N/NC(=O)c1cc(-c2cccc3ccccc23)n[nH]1`: the EC50 was 17.4 µM.

On to `N#C/C(=C\c1ccc(F)c(F)c1)C(=O)NC1CCCCC1`, for which the 50% effective concentration (EC50) was 46.6 µM.

Consider `C=C1c2c(Cl)ccc(O)c2C(O)=C2C(=O)[C@]3(O)C(O)=C(C(N)=O)C(=O)[C@@H](N(C)C)[C@@H]3[C@@H](O)C12` (some centres undefined), for which the EC50 was 13 µM.

As for `Cc1cc(C(=O)N/N=C/c2cc(Br)cc([N+](=O)[O-])c2O)c2ccccc2n1`, the EC50 was 23 µM.

Consider `O=C(C[n+]1cc(-c2ccccc2)n2c1CCCCC2)c1ccc(Cl)cc1`, for which the EC50 was 28.9 µM.

In the case of `Nc1nc(F)nc2c1ncn2[C@@H]1O[C@H](CO)[C@@H](O)[C@H]1O`, the EC50 was 0.3 µM.

For the compound `CCCc1nc2c(=O)n(C)c(=O)nc-2n(C)n1`, the EC50 was 2.36 µM.

Regarding `O=C(CSc1nc2ccccc2s1)N/N=C/c1cc([N+](=O)[O-])ccc1O`, the EC50 is 26.4 µM.

As for `O=C(N/N=C/c1cc(O)ccc1Br)c1cccnc1`, the EC50 was 2.25 µM.

Consider `CCCCCCCCNC(C)C(O)c1ccc(SC(C)C)cc1` (centres undefined), for which the EC50 is 10.7 µM.

On to `O=C(/C=C/c1ccco1)NC(=S)Nc1ccc(N2CCCC2)cc1`, for which the EC50 was 9.59 µM.

On to `CCCCCCCNC(=O)C1(CC2CC(c3cccc(Br)c3)=NO2)CCNCC1` (centres undefined), for which the 50% effective concentration (EC50) was 4.13 µM.

Turning to `Cc1ccc2nc(C)c(CN3CCN(c4ccc([N+](=O)[O-])cc4Cl)CC3)n2c1`, the EC50 was 19.7 µM.

Take `C=CCNc1ncnc2c1[nH]c1ccc(C)cc12`: the EC50 was 25.8 µM.
